Results: PMC6001238, “Iterative Chemical Engineering of Vancomycin Leads to Novel Vancomycin Analogs With a High in Vitro Therapeutic Index” (Frontiers in Microbiology, 2018)
Converted amounts (≈) assume the structure as drawn.

Assays:
[1] = tested on: E. faecalis VSE 1; experiment: MIC, broth microdilution, vancomycin-sensitive E. faecalis (VSE 1); format: cell-based, Enterococcus faecalis; details: for MIC: Enterococcus faecalis VSE 1 (vancomycin-sensitive), read-out: MIC; for MIC-fold improvement vs. vancomycin: VSE 1, ratio of MIC of vancomycin and MIC of analogue
Summary of the method: (§1)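 Broth microdilution per CLSI; controls = ultrapure water, non-inoculated broth. One set: + vancomycin 10 μM final alongside test analogue/control drug.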

[2] = tested on: E. faecalis VRE 6; experiment: MIC, broth microdilution, vancomycin-resistant E. faecalis VRE 6 (VanA); format: cell-based, Enterococcus faecalis; details: for MIC: Enterococcus faecalis VRE 6 (vancomycin-resistant), read-out: MIC; for MIC-fold improvement vs. vancomycin: VRE 6, ratio of MIC of vancomycin and MIC of analogue
Summary of the method: as §1

[3] = tested on: E. faecalis VRE 53; experiment: MIC, broth microdilution, vancomycin-resistant E. faecalis VRE 53 (VanA); format: cell-based, Enterococcus faecalis; details: for MIC: Enterococcus faecalis VRE 53 (vancomycin-resistant), read-out: MIC; for MIC-fold improvement vs. vancomycin: VRE 53, ratio of MIC of vancomycin and MIC of analogue
Summary of the method: as §1

[4] = tested on: E. faecalis VRE 29; experiment: MIC, broth microdilution, vancomycin-resistant E. faecalis VRE 29 (VanA); format: cell-based, Enterococcus faecalis; details: for MIC: Enterococcus faecalis VRE 29 (vancomycin-resistant), read-out: MIC; for MIC-fold improvement vs. vancomycin: VRE 29, ratio of MIC of vancomycin and MIC of analogue
Summary of the method: as §1

[5] = tested on: E. faecalis VRE 37; experiment: MIC, broth microdilution, vancomycin-resistant E. faecalis VRE 37 (VanA); format: cell-based, Enterococcus faecalis; details: for MIC: Enterococcus faecalis VRE 37 (vancomycin-resistant), read-out: MIC; for MIC-fold improvement vs. vancomycin: VRE 37, ratio of MIC of vancomycin and MIC of analogue
Summary of the method: as §1

[6] = tested on: Murine leukemia (L1210) cells; experiment: Cytostatic activity, L1210 cell proliferation; format: cell-based; details: mean ± SD of three experiments; highest concentration tested 250 µM; 2 days; read-out: Toxicity (IC50) L1210
Summary of the method: (§2)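 Readout: Coulter cell number after drug exposure at 37°C. Durations differ by line (L1210 2 days; CEM 3 days; HeLa 4 days). Stock suspension 300,000–500,000 cells/mL, diluted by mixing with compound. Endpoint: IC50 vs negative control.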

[7] = tested on: human T-lymphocyte (CEM) cells; experiment: Cytostatic activity, CEM cell proliferation; format: cell-based; details: mean ± SD of three experiments; highest concentration tested 250 µM; 3 days; read-out: Toxicity (IC50) CEM
Summary of the method: as §2

[8] = tested on: human cervix carcinoma (HeLa) cells; experiment: Cytostatic activity, HeLa cell proliferation; format: cell-based; details: mean ± SD of three experiments; highest concentration tested 250 µM; 4 days; read-out: Toxicity (IC50) HeLa
Summary of the method: as §2

[9] = tested on: L1210, CEM and HeLa cell lines; experiment: Cytostatic activity, average or summary over L1210, CEM and HeLa; format: cell-based; details: average of L1210, CEM and HeLa; read-out: Toxicity (IC50) Average
Summary of the method: as §2

[10] = tested on: S. aureus VSSA (ATCC 6538); experiment: MIC, broth microdilution, vancomycin-sensitive S. aureus (VSSA/MSSA, ATCC 6538); format: cell-based, Staphylococcus aureus; details: for MIC: Staphylococcus aureus VSSA, read-out: MIC; for MIC-fold improvement vs. vancomycin: VSSA, ratio of MIC of vancomycin and MIC of analogue
Summary of the method: as §1

[11] = tested on: S. aureus VISA/HIP5827; experiment: MIC, broth microdilution, vancomycin-intermediate S. aureus VISA HIP5827; format: cell-based, Staphylococcus aureus; details: for MIC: Staphylococcus aureus VISA/HIP5827, read-out: MIC; for MIC-fold improvement vs. vancomycin: VISA/HIP5827, ratio of MIC of vancomycin and MIC of analogue
Summary of the method: as §1

[12] = tested on: S. aureus VRSA; experiment: MIC, broth microdilution, vancomycin-resistant S. aureus (VRSA); format: cell-based, Staphylococcus aureus; details: for MIC: Staphylococcus aureus VRSA, read-out: MIC; for MIC-fold improvement vs. vancomycin: VRSA, ratio of MIC of vancomycin and MIC of analogue
Summary of the method: as §1

[13] = tested on: MRSA KS2; experiment: MIC, broth microdilution, MRSA KS2; format: cell-based, Staphylococcus aureus; details: for MIC-fold improvement vs. vancomycin: MRSA KS2, ratio of MIC of vancomycin and MIC of analogue; for MIC: Staphylococcus aureus MRSA KS2, read-out: MIC
Summary of the method: as §1

[14] = tested on: MRSA KS6; experiment: MIC, broth microdilution, MRSA KS6; format: cell-based, Staphylococcus aureus; details: for MIC-fold improvement vs. vancomycin: MRSA KS6, ratio of MIC of vancomycin and MIC of analogue; for MIC: Staphylococcus aureus MRSA KS6, read-out: MIC
Summary of the method: as §1

[15] = tested on: MRSA KS89; experiment: MIC, broth microdilution, MRSA KS89; format: cell-based, Staphylococcus aureus; details: for MIC-fold improvement vs. vancomycin: MRSA KS8, ratio of MIC of vancomycin and MIC of analogue; for MIC: Staphylococcus aureus MRSA KS8, read-out: MIC
Summary of the method: as §1

[16] = tested on: MRSA KS1; experiment: MIC, broth microdilution, MRSA KS1; format: cell-based, Staphylococcus aureus; details: for MIC-fold improvement vs. vancomycin: MRSA KS1, ratio of MIC of vancomycin and MIC of analogue; for MIC: Staphylococcus aureus MRSA KS1, read-out: MIC
Summary of the method: as §1

Row | Structure (SMILES) | MIC [1] [µM] | MIC-fold improvement vs. vancomycin [1] | MIC [2] [µM] | MIC-fold improvement vs. vancomycin [2] | MIC [3] [µM] | MIC-fold improvement vs. vancomycin [3] | MIC [4] [µM] | MIC-fold improvement vs. vancomycin [4] | MIC [5] [µM] | MIC-fold improvement vs. vancomycin [5] | IC50 [6] [µM] | IC50 [7] [µM] | IC50 [8] [µM] | IC50 [9] [µM] | MIC [10] [µM] | MIC-fold improvement vs. vancomycin [10] | MIC [11] [µM] | MIC-fold improvement vs. vancomycin [11] | MIC [12] [µM] | MIC-fold improvement vs. vancomycin [12] | other results
1 | CN[C@H](CC(C)C)C(=O)N[C@H]1C(=O)N[C@@H](CC(N)=O)C(=O)N[C@H]2C(=O)N[C@H]3C(=O)N[C@H](C(=O)N[C@H](C(=O)NCCNC(=O)/C=C/c4ccc(NS(=O)(=O)c5ccccc5)cc4)c4cc(O)cc(O)c4-c4cc3ccc4O)[C@H](O)c3ccc(c(Cl)c3)Oc3cc2cc(c3O[C@@H]2O[C@H](CO)[C@@H](O)[C@H](O)[C@H]2O[C@H]2C[C@](C)(N)[C@H](O)[C@H](C)O2)Oc2ccc(cc2Cl)[C@H]1O [Vanc-54] | 0.78 (≈ 1.39 µg/mL) | 2 | 12.5 (≈ 22.2 µg/mL) | 16 | 25 (≈ 44.4 µg/mL) | 16 | 25 (≈ 44.4 µg/mL) | 16 | 25 (≈ 44.4 µg/mL) | 16 | > 250 | ≥ 250 | 54 ± 29 | 185 | 0.39 (≈ 0.693 µg/mL) | 2 | 0.78 (≈ 1.39 µg/mL) | 8 | 0.39 (≈ 0.693 µg/mL) | 256 | MIC-fold improvement vs. vancomycin [13]: 2; MIC [13]: 0.39 µM (≈ 0.693 µg/mL); MIC-fold improvement vs. vancomycin [14]: 2; MIC [14]: 0.39 µM (≈ 0.693 µg/mL); MIC-fold improvement vs. vancomycin [15]: 2; MIC [15]: 0.39 µM (≈ 0.693 µg/mL); MIC-fold improvement vs. vancomycin [16]: 2; MIC [16]: 0.39 µM (≈ 0.693 µg/mL)
2 | CN[C@H](CC(C)C)C(=O)N[C@H]1C(=O)N[C@@H](CC(N)=O)C(=O)N[C@H]2C(=O)N[C@H]3C(=O)N[C@H](C(=O)N[C@H](C(=O)NCCNC(=O)/C=C/c4ccc(NS(=O)(=O)c5ccc(Cl)cc5Cl)cc4)c4cc(O)cc(O)c4-c4cc3ccc4O)[C@H](O)c3ccc(c(Cl)c3)Oc3cc2cc(c3O[C@@H]2O[C@H](CO)[C@@H](O)[C@H](O)[C@H]2O[C@H]2C[C@](C)(N)[C@H](O)[C@H](C)O2)Oc2ccc(cc2Cl)[C@H]1O [Vanc-64] | 0.39 (≈ 0.72 µg/mL) | 4 | 3.13 (≈ 5.78 µg/mL) | 64 | 12.5 (≈ 23.1 µg/mL) | 32 | 6.25 (≈ 11.5 µg/mL) | 64 | 6.25 (≈ 11.5 µg/mL) | 64 | > 250 | 210 ± 56 | 102 ± 39 | 187 | 0.39 (≈ 0.72 µg/mL) | 2 | 0.78 (≈ 1.44 µg/mL) | 8 | 0.39 (≈ 0.72 µg/mL) | 256 | MIC-fold improvement vs. vancomycin [13]: 4; MIC [13]: 0.20 µM (≈ 0.369 µg/mL); MIC-fold improvement vs. vancomycin [14]: 4; MIC [14]: 0.20 µM (≈ 0.369 µg/mL); MIC-fold improvement vs. vancomycin [15]: 2; MIC [15]: 0.39 µM (≈ 0.72 µg/mL); MIC-fold improvement vs. vancomycin [16]: 4; MIC [16]: 0.20 µM (≈ 0.369 µg/mL)
